Results: US20030124150A1, “Kit for reducing aching” (priority 2001, published 2003)

Key:
subjects [1] = assay: Aching as side effect of multiple dosing of PDE5 inhibitors (background observations); conditions: for aching as a side effect of multiple dosing: in vivo
From the text: A problem associated with the multiple daily dosing of PDE5 inhibitors is that subjects experience, as a side effect, aching in certain parts of the body. Subjects describe this aching as predominantly a dull aching without muscle tenderness. Aching is experienced predominantly in the“postural muscles”, typically the calves, thighs, buttocks, lower back, shoulders and neck regions. These symptoms may be described as myalgia or back pain; for the purposes of this application, they will be referred to as“aching”.

subjects [2] = assay: Study 2: Compound A multiple dosing, non-escalating (Example 3) vs escalating (Example 4), myalgia/back pain (aching); assay type: in vivo; conditions: for Myalgia/back pain, Mild/moderate / Myalgia/back pain, Severe: subjects affected/dosed
Procedure: (§1) All adverse events observed or recorded during the studies were recorded by the investigator, including information about concomitant illnesses and therapeutic interventions. For all adverse events, the investigator pursued and obtained information adequate to determine the outcome of the adverse event. Physical examinations at screening and medical histories of all subjects were normal with no indication of any joint, muscle, or tendon weakness.
Six subjects were given 20 mg of Compound A three times a day (tid) for 7 days. Dosage took the form of immediate release tablets.
Nine subjects were given 2.5 mg of Compound A three times a day (tid) for 7 days, then 7.5 mg tid for 7 days, then 20 mg tid for a further 7 days. Dosage took the form of immediate release tablets.

subjects [3] = assay: Study 3: Compound A escalating dosing with 24-hour drug holiday (Examples 6 and 7), myalgia and back pain (aching); assay type: in vivo; conditions: for Back pain, Mild / Back pain, Moderate / Back pain, Severe / Myalgia, Mild / Myalgia, Moderate / Myalgia, Severe: 20 mg tid 7 days, 24-hour drug holiday, 20 mg tid 6 days, subjects affected/dosed
Procedure: as §1
(§2) Nine subjects were given 2.5 mg of Compound A three times a day (tid) for 7 days followed by 20 mg tid for a further 7 days. The subjects were given a 24-hour drug holiday, i.e. a day without taking the inhibitor, then 20 mg tid dosing was continued for another 6 days. Dosage took the form of immediate release tablets.
as §2, with “4 days, then 7.5 mg tid for 3 days, then” for “7 days followed by”

subjects [4] = conditions: reported by H Padma-Nathan et al and Eli Lilly/ICOS presentation; cited from earlier work
subjects [5] = assay: Study 1: double blind, placebo-controlled, multiple dose study of sildenafil, adverse events (myalgia, back pain); assay type: in vivo; conditions: for Back pain / Myalgia: oral capsules, subjects affected/subjects dosed
Procedure: as §1
Dosage took the form of oral capsules.

[6] = Example 3: 20 mg tid for 7 days, immediate release tablets
[7] = Example 4: 2.5 mg tid 7 days, then 7.5 mg tid 7 days, then 20 mg tid 7 days
[8] = Example 4 escalating dosing regime
[9] = Example 6 escalating dosing regime
[10] = Example 7: 2.5 mg tid 4 days, 7.5 mg tid 3 days
[11] = Example 7 escalating dosing regime

In the case of CCCOc1ccc(S(=O)(=O)N2CCN(CC)CC2)cc1-c1nc2c(CC)n(Cc3ccccn3)nc2c(=O)[nH]1 [WO 98/49166, Example 4, 3-ethyl-5-[5-(4-ethylpiperazin-1-ylsulphonyl)-2-n-propoxyphenyl]-2-(pyridin-2-yl)methyl-2,6-dihydro-7H-pyrazolo[4,3-d]pyrimidin-7-one], the “aching as a side effect of multiple dosing” value (subjects [1]) is reported as “observed”.
With CCCc1nn(C)c2c(=O)[nH]c(-c3cc(C(=O)CN4CCOCC4)ccc3OCC)nc12 [Compound A, 5-(2-ethoxy-5-morpholinoacetylphenyl)-1-methyl-3-n-propyl-1,6-dihydro-7H-pyrazolo[4,3-d]pyrimidin-7-one] the “Myalgia/back pain, Mild/moderate” value (subjects [2]; [6]) was 0/6, the “Myalgia/back pain, Severe” value (subjects [2]; [6]) was 6/6 and the “subjects withdrawn due to the severity of the aching” value (subjects [2]; Example 3: 20 mg tid, after only 4 days of treatment, six subjects) was “four”. For the same molecule, the “Myalgia/back pain, Mild/moderate” value (subjects [2]; [7]) was 1/9, the “Myalgia/back pain, Severe” value (subjects [2]; [7]) was 1/9 and the “aching compared with non-escalating regime of Example 3” value (subjects [2]; [8]) was “significant reduction in aching”. For the same molecule, the withdrawals (subjects [2]; [8]) was “no withdrawals”, the “incidence of aching after the 24-hour drug-free period” value (subjects [3]; Example 6, 20 mg tid resumed) was “no apparent increase” and the “Back pain, Mild” value (subjects [3]; Example 6: 2.5 mg tid 7 days) was 2/9. For the same molecule, the “Back pain, Moderate” value (subjects [3]; Example 6: 2.5 mg tid 7 days) was 0/9, the “Back pain, Severe” value (subjects [3]; Example 6: 2.5 mg tid 7 days) was 0/9 and the “Myalgia, Mild” value (subjects [3]; Example 6: 2.5 mg tid 7 days) was 2/9. The “Myalgia, Moderate” value (subjects [3]; Example 6: 2.5 mg tid 7 days) was 3/9, the “Myalgia, Severe” value (subjects [3]; Example 6: 2.5 mg tid 7 days) was 1/9 and the “aching compared with non-escalating regime of Example 3” value (subjects [3]; [9]) was “significant reduction in aching”. The withdrawals (subjects [3]; [9]) was “no withdrawals”, the “effectiveness of triple dosing in reducing aching” value (subjects [3]; Example 7 (triple dosing)) was “particularly effective in reducing aching” and the “incidence of aching after the 24-hour drug-free period” value (subjects [3]; Example 7, 20 mg tid resumed) was “no apparent increase”. For the same molecule, the “Back pain, Mild” value (subjects [3]; [10]) was 0/9, the “Back pain, Moderate” value (subjects [3]; [10]) was 0/9 and the “Back pain, Severe” value (subjects [3]; [10]) was 0/9. The “Myalgia, Mild” value (subjects [3]; [10]) was 4/9, the “Myalgia, Moderate” value (subjects [3]; [10]) was 1/9 and the “Myalgia, Severe” value (subjects [3]; [10]) was 0/9. For the same molecule, the “aching compared with non-escalating regime of Example 3” value (subjects [3]; [11]) was “significant reduction in aching” and the withdrawals (subjects [3]; [11]) was “no withdrawals”.
In the case of CN1CC(=O)N2[C@H](c3ccc4c(c3)OCO4)c3[nH]c4ccccc4c3C[C@@H]2C1=O [tadalafil, (6R, 12aR)-2,3,6,7,12,12a-hexahydro-2-methyl-6-(3,4-methylenedioxyphenyl)-pyrazino[2′,1′:6,1]pyrido[3,4-b]indole-1,4-dione], the backache and myalgia (subjects [4]) is given as “reported to cause backache and myalgia”.
For CCc1c2nc(-c3cc(S(=O)(=O)N4CCN(CC)CC4)cnc3OCCOC)[nH]c(=O)c2nn1Cc1ccccn1 [WO 99/54333, Example 4, 3-ethyl-5-[5-(4-ethylpiperazin-1-ylsulphonyl)-2-(2-methoxyethoxy)pyridin-3-yl]-2-(pyridin-2-yl)methyl-2,6-dihydro-7H-pyrazolo[4,3-d]-pyrimidin-7-one], the “aching as a side effect of multiple dosing” value (subjects [1]) was “observed”.
In the case of CCCc1nn(C)c2c(=O)[nH]c(-c3cc(S(=O)(=O)N4CCN(C)CC4)ccc3OCC)nc12 [sildenafil, 5-[2-ethoxy-5-(4-methyl-1-piperazinylsulphonyl)phenyl]-1-methyl-3-n-propyl-1,6-dihydro-7H-pyrazolo[4,3-d]pyrimidin-7-one], the incidence of aching (subjects [1]; 25 mg tid) is reported as 60%, the incidence of aching (subjects [1]; 75 mg tid) is reported as 100% and the “day by which aching disappears” value (subjects [1]; higher doses (for example, 75 mg tid)) is reported as “sixth or seventh day”. The “day on which aching generally commences” value (subjects [1]; multiple dosing regime) was “second or third day”, the Back pain (subjects [5]; 25 mg tid) was 2/10 and the Myalgia (subjects [5]; 25 mg tid) was 2/10. The Back pain (subjects [5]; 50 mg tid) was 2/9, the Myalgia (subjects [5]; 50 mg tid) was 5/9 and the “reports of severe treatment-related adverse events which led to discontinuance of the treatment” value (subjects [5]; 75 mg tid) was “three”. For the same molecule, the Back pain (subjects [5]; 75 mg tid) was 5/8, the Myalgia (subjects [5]; 75 mg tid) was 3/8 and the “most common adverse events” value (subjects [5]; 25, 50 or 75 mg tid) was “back pain, headache and myalgia”. For the same molecule, the “persistence of headache and myalgia that occurred after a few days of treatment” value (subjects [5]; lower doses (25 mg tid and 50 mg tid)) was “did not persist with further treatment”.
